{"source": "paper PMC11267536", "about": "“Gonococcal Mimitope Vaccine Candidate Forms a Beta-Hairpin Turn and Binds Hydrophobically to a Therapeutic Monoclonal Antibody” (JACS Au, 2024)", "molecules": {"B1": {"name": "Murine mAb 2C7: murine anti-LOS monoclonal antibody 2C7 (antibody, V domains shown)", "VH": "EVQLQQSGPELVKPGSSVKISCKGSGYTFTDYNMEWVKQSHGKSLEWIGVINPNNRFTSYNQNFRGKATLTVDKSSSTAYMDLRSLTSEDSAVYFCAGSRWYQYDYWGQGTTLTVSS", "VL": "QVVVTQESALTTSPGETVTLTCRSSTGAVTTSNYANWVQEKPDHLFTGLIGGINNRAPGVPARFSGSLIADKAALTITGAQTEDEAIYFCALWYSNHWVFGGGTKLTVL"}, "B2": {"name": "cyclic peptide 2 (CP2) (peptide)", "peptide": "GPIPVLDENGLFAPGPCK-OH", "modifications": "bridge N-17; not fully specified (N-terminus, bridges)"}}, "key": {"gonococci": {"test_system": "gonococci", "settings": "ref previous studies, cited from earlier work", "description": "The spread of multidrug-resistant strains of Neisseria gonorrhoeae, the etiologic agent of gonorrhea, represents a global health emergency. Therefore, the development of a safe and effective vaccine against gonorrhea is urgently needed. […] Furthermore, we identified a peptide, cyclic peptide 2 (CP2) that mimicked the 2C7 LOS epitope, elic ... || Neisseria gonorrhoeae is a leading cause of sexually transmitted infections, which include urethritis, cervicitis, pharyngitis, locally invasive (epididymitis and salpingo-oophritis) and disseminated infections, and in rare cases, meningitis and endocarditis.[1] Infections in women are frequently asymptomatic, which augments the spread of bacteria among populations. Further, strains have emerged that are resistant to multiple antibiotics, which have the potential to lead to untreatable infections. […] Therefore, a random peptide display library was used to identify a peptide, designated as PEP1, which bound mAb 2C7. […] Subsequently, PEP1 was covalently cyclized to yield CP2 and configured as a tetramer (designated tetra-MAP CP2 or TMCP2). TMCP2 adjuvanted wit ..."}, "mAb 2C7 [1]": {"test_system": "mAb 2C7", "test": "Isothermal titration calorimetry (ITC)", "type": "binding, Human-mouse chimeric", "settings": "20 °C", "experimental": "Isothermal titration calorimetry (ITC) experiments were carried out at 20 °C by using a MicroCal PEAQ-ITC instrument. mAb and peptide CP2 were both dialyzed against PBS pH 7.4 to avoid buffer mismatch between solutions. A solution of mAb with a concentration of 30 μM was loaded into the cell, and for each measurement, CP2 was added to the antibody solution through a microsyringe under a stirrer speed of 750 rpm. The titration was performed by adding 2 μL from a 1.67 mM CP2 solution for 19 injections using a time duration of 150 s. The data were analyzed and fitted by using the one-binding site model. The standard thermodynamic parameters of equilibrium were calculated by the following equation[45]: [drawing 2] 2 where ΔG is the Gibb’s free energy, Ka is the equilibrium constant, R is the gas constant, T is the temperature in kelvin, ΔH is the enthalpy change, and ΔS is the entropy change."}, "gonococcal colonization": {"test_system": "gonococcal colonization", "settings": "cited from earlier work", "description": "The spread of multidrug-resistant strains of Neisseria gonorrhoeae, the etiologic agent of gonorrhea, represents a global health emergency. Therefore, the development of a safe and effective vaccine against gonorrhea is urgently needed. […] Furthermore, we identified a peptide, cyclic peptide 2 (CP2) that mimicked the 2C7 LOS epitope, elic ... || Neisseria gonorrhoeae is a leading cause of sexually transmitted infections, which include urethritis, cervicitis, pharyngitis, locally invasive (epididymitis and salpingo-oophritis) and disseminated infections, and in rare cases, meningitis and endocarditis.[1] Infections in women are frequently asymptomatic, which augments the spread of bacteria among populations. Further, strains have emerged that are resistant to multiple antibiotics, which have the potential to lead to untreatable infections. Thus, the development of vaccines and novel therapeutics, including nonantibiotic approaches, is ... || Gonococcal lipooligosaccharide (LOS) is the most abundant component of the outer membrane. Antibodies against LOS can elicit complement-dependent bacterial killing, and therefore, LOS has been pursued as a vaccine candidate (reviewed in ref ([12])). A murine anti-LOS monoclonal antibody (mAb) 2C7 was isolated almost four decades ago.[13],[14] […]"}, "mAb 2C7 [2]": {"test_system": "mAb 2C7", "test": "WaterLOGSY, CPMG and 1D NH chemical shift perturbation NMR", "type": "binding, Human-mouse chimeric", "experimental": "(§1) NMR spectra were recorded on a Bruker AVANCE NEO 600-MHz equipped with a cryo probe, and data acquisition and processing were performed with TOPSPIN 4.1.1 software. Samples were prepared in H2O:D2O (90:10) buffered with 50 mM phosphate at pH 7.4, using 3 mm NMR tubes. NMR spectra were acquired using antibody concentrations of 10–20 μM, a peptide concentration of 1 mM, and an antibody:peptide ratio from 1:18 to 1:50, depending on the NMR experiments, and temperatures of 288 and 298 K; 0.05 mM amount of deuterated trimethylsilylpropanoic acid (TSP) was used as an internal standard.\nThe waterLOGSY experiments were performed on CP2 in the absence and presence of the mAb, using a conventional 1D NOE-ePHOGSY pulse sequence[36] provided in the Bruker library (ephogsygpno.2). The bulk water was selectively irradiated by 1D NOESY, and the solvent suppression was modified into a double pulsed-field gradient (DPFG) perfect-echo.[37] A mixing time of 2s was used in order to compare the WaterLOGSY experiment with the STD NMR experiment.\nA mixture of 20 μM mAb2C7 and 1 mM CP2 peptide was prepared in deuterated phosphate saline buffer pH 7.4. Pseudo 2D experiments (cpmg_esgp2d) were used for detecting T2 spin–spin relaxation measurements. Data were analyzed by fitting the equation f(t) = Io × exp (−t/T) using Dynamics Center 2.7.1."}, "mAb 2C7 [3]": {"target": "mAb 2C7", "test": "STD NMR titration of CP2 into mAb 2C7", "type": "binding, Human-mouse chimeric", "settings": "STD-AF of methyl signals, one-site Langmuir model, saturation time 2 s, CP2 0.17-1.70 mM, 50 mM phosphate pH 7.4, H2O:D2O 90:10, 288 and 298 K, read-out: apparent equilibrium dissociation constant (KD)", "experimental": "Chimeric mAb 2C7 and the sequence for the VH and VL regions of murine mAb 2C7 have been described previously.[18] Human-mouse chimeric mAb 2C7 was expressed in ExpiCHO cells and purified by affinity chromatography of tissue culture supernatants using Protein A/G agarose. Chimeric Fab 2C7 was expressed in CHO cells and purified by affinity chromatography with an anti-CH1 antibody (LakePharma).\nas §1\nSTD NMR experiments were acquired with 32,000 data points and zero-filled up to 64,000 data points prior to processing. The protein resonances were selectively irradiated using 40 Gauss pulses with a length of 50 ms, setting the off-resonance pulse frequency at 40 ppm and the on-resonance pulse at 5.5 ppm. An excitation sculpting with gradient pulses (esgp) was applied for the suppression of water signals. […]"}, "gonococcal strains": {"test_system": "gonococcal strains", "settings": "cited from earlier work", "description": "Gonococcal lipooligosaccharide (LOS) is the most abundant component of the outer membrane. Antibodies against LOS can elicit complement-dependent bacterial killing, and therefore, LOS has been pursued as a vaccine candidate (reviewed in ref ([12])). A murine anti-LOS monoclonal antibody (mAb) 2C7 was isolated almost four decades ago.[13],[14] 2C7 recognizes an LOS epitope that comprises lactose from heptose (Hep) II; lactose from HepI or GlcNAc may also contribute to the 2C7 epitope (see Supporting Information, Scheme S1). This mAb reacted with 94% of 68 gonococcal strains examined in the cerv ..."}, "[4]": {"target": "human-mouse chimeric mAb 2C7 (mouse | human | mouse VL, human constant region)", "test": "ITC; 20 °C, PBS pH 7.4; 30 uM mAb in the cell, 1.67 mM CP2 in the syringe, 19 injections of 2 uL; one-site model"}, "[5]": {"target": "human-mouse chimeric mAb 2C7 (mouse | human | mouse VL, human constant region)", "test": "NMR titration; STD NMR; CP2 (0.17 to 1.70 mM) titrated into a solution of mAb; 50 mM phosphate pH 7.4, H2O:D2O 90:10; saturation time 2 s; one-site Langmuir isotherm; apparent"}}, "note": "Values joined by “and” are separate entries in the source; they are usually repeats but may differ in a detail not shown here. Equal values may be shown once. Bridges are numbered along the chain shown (N, C = ends)."}
{"molecule": "Br-Ac-Gly-Pro-Ile-Pro-Val-Leu-Asp-Glu-Asn-Gly-Leu-Phe-Ala-Pro-Gly-Pro-Cys-Lys-OH (sidechain bridge or staple) [CP2]", "values": [{"measurement": "bactericidal antibodies", "setting": "gonococci; mice", "value": "elicited bactericidal antibodies in mice"}, {"measurement": "ΔG", "setting": "mAb 2C7 [1]; PBS pH 7.4", "value": -6.24, "unit": "kcal/mol"}, {"measurement": "ΔG (exothermic process)", "setting": "mAb 2C7 [1]; PBS pH 7.4", "value": "< 0"}, {"measurement": "ΔH", "setting": "mAb 2C7 [1]; PBS pH 7.4", "value": "-1.71 ± 0.0707 kcal/mol and -1.71 kcal/mol"}, {"measurement": "−TΔS", "setting": "mAb 2C7 [1]; PBS pH 7.4", "value": -4.52, "unit": "kcal/mol"}, {"measurement": "binding stoichiometry N (sites)", "setting": "mAb 2C7 [1]; one-site binding model, PBS pH 7.4", "value": "1.89 ±4.4e-2 and 1.89"}, {"measurement": "Kd", "setting": "mAb 2C7 [1]; one-site binding model, PBS pH 7.4, mAb 30 μM, 1.67 mM CP2, 19 injections of 2 μL", "value": 23, "unit": "µM"}, {"measurement": "active protection", "setting": "gonococcal colonization; mouse vaginal colonization model, ref previous studies", "value": "actively protected in a mouse vaginal colonization model"}, {"measurement": "transverse relaxation time T2 (CPMG)", "setting": "mAb 2C7 [2]; 20 μM mAb 2C7, 1 mM CP2, deuterated phosphate saline buffer pH 7.4", "value": "indicative of complex formation"}, {"measurement": "WaterLOGSY binding", "setting": "mAb 2C7 [2]; change in peak phase from free to bound state, mixing time 2 s", "value": "the change in the peak phase passing from the free to the bound state is indicative of binding"}, {"measurement": "1D NH chemical shift perturbation", "setting": "mAb 2C7 [2]; mixture of mAb 2C7 with CP2", "value": "a few chemical shift perturbations"}, {"measurement": "Kd", "setting": "mAb 2C7 [3]", "value": 61, "unit": "µM"}]}
{"molecule": "B1", "values": [{"measurement": "complement-dependent bactericidal activity", "setting": "gonococci; against gonococci", "value": "elicits complement-dependent bactericidal activity against gonococci"}, {"measurement": "duration and burden of gonococcal colonization", "setting": "gonococcal colonization; mouse vaginal model", "value": "decreased the duration and burden of gonococcal colonization"}, {"measurement": "gonococcal strains recognized", "setting": "gonococcal strains; 68 gonococcal strains examined in the cervical secretions of women", "value": 94, "unit": "%"}, {"measurement": "clinical isolates recognized", "setting": "gonococcal strains; 75 minimally passaged clinical isolates, Nanjing, China", "value": 100, "unit": "%"}]}
{"molecule": "B2", "values": [{"measurement": "Kd", "setting": "[4]", "value": 23, "unit": "µM"}, {"measurement": "dH", "setting": "[4]", "value": -1.71, "unit": "kcal/mol"}, {"measurement": "stoichiometry N", "setting": "[4]", "value": 1.89, "unit": "CP2 per mAb"}, {"measurement": "Kd", "setting": "[5]", "value": 61, "unit": "µM"}]}
